Legend:
Test in all cases: Eurofins KinaseProfiler off-target kinase inhibition
Type in all cases: biochemical
Flt1(h) = target: T1, Flt1(h) (Homo sapiens, UniProt P17948)
T1 construct: purchased Eurofins (KinaseProfiler platform)
Description: (§1) In order to investigate the specificity of the inhibition of the target by the compound, in this study, the activity and selectivity of test compound 1 on the off-target kinases in related pathways were tested on the Eurofins kinaseProfiler™ platform, and compound screening and analysis were conducted using IC50 value as the indicator.
(§2) Compound 1 was detected for each selected kinase using the standard Eurofins Kinase Profiler™ protocol, which followed the relevant standard operating procedures. The IC50 values of the inhibitory activity of the test compound 1 on 67 kinases including Abl(h), B-Raf(h), BTK(h) and JAK(h) were analyzed.

Fyn(h) = target: T2, Fyn(h) (Homo sapiens, UniProt P06241)
T2 construct: purchased Eurofins (KinaseProfiler platform)
Description: as §1, §2

Src(T341M)(h) = target: T3, Src(T341M)(h) (Homo sapiens, UniProt P12931, T341M)
T3 construct: purchased Eurofins (KinaseProfiler platform)
Description: as §1, §2

Yes(h) = target: T4, Yes(h) (Homo sapiens, UniProt P07947)
T4 construct: purchased Eurofins (KinaseProfiler platform)
Description: as §1, §2

JNK2α2(h) = target: T5, JNK2α2(h) (Homo sapiens, UniProt P45984)
T5 construct: purchased Eurofins (KinaseProfiler service)
Description: as §1, §2

CSK(h) = target: T6, CSK(h) (Homo sapiens, UniProt P41240)
T6 construct: purchased Eurofins (KinaseProfiler platform)
Description: as §1, §2

cSRC(h) = target: T7, cSRC(h) (Homo sapiens, UniProt P12931)
T7 construct: purchased Eurofins (KinaseProfiler platform)
Description: as §1, §2

ErbB2(h) = target: T8, ErbB2(h) (Homo sapiens, UniProt P04626)
T8 construct: purchased Eurofins (KinaseProfiler platform)
Description: as §1, §2

c-kit(h) = target: T9, c-kit(h) (Homo sapiens, UniProt P10721)
T9 construct: purchased Eurofins (KinaseProfiler platform)
Description: as §1, §2

FAK(h) = target: T10, FAK(h) (Homo sapiens, UniProt Q05397)
T10 construct: purchased Eurofins (KinaseProfiler service)
Description: as §1, §2

PKA(h) = target: T11, PKA(h) (Homo sapiens, UniProt P17612)
T11 construct: purchased Eurofins (KinaseProfiler service)
Description: as §1, §2

MAP4K4(h) = target: T12, MAP4K4(h) (Homo sapiens, UniProt O95819)
T12 construct: purchased Eurofins (KinaseProfiler service)
Description: as §1, §2

IR(h) = target: T13, IR(h) (Homo sapiens, UniProt P06213)
T13 construct: purchased Eurofins (KinaseProfiler service)
Description: as §1, §2

CK1ε(h) = target: T14, CK1ε(h) (Homo sapiens, UniProt P49674)
T14 construct: purchased Eurofins (KinaseProfiler platform)
Description: as §1, §2

MSK1(h) = target: T15, MSK1(h) (Homo sapiens, UniProt O75582)
T15 construct: purchased Eurofins (KinaseProfiler service)
Description: as §1, §2

JAK3(h) = target: T16, JAK3(h) (Homo sapiens, UniProt P52333)
T16 construct: purchased Eurofins (KinaseProfiler service)
Description: as §1, §2

SAPK3(h) = target: T17, SAPK3(h) (Homo sapiens, UniProt P53778)
T17 construct: purchased Eurofins (KinaseProfiler platform)
Description: as §1, §2

CDK2/cyclinA(h) = target: T18, CDK2/cyclinA(h) (Homo sapiens, UniProt P24941)
T18 construct: purchased Eurofins (KinaseProfiler platform)
Description: as §1, §2

BTK(h) = target: T19, BTK(h) (Homo sapiens, UniProt Q06187)
T19 construct: purchased Eurofins (KinaseProfiler platform)
Description: as §1, §2

FGFR1(h) = target: T20, FGFR1(h) (Homo sapiens, UniProt P11362)
T20 construct: purchased Eurofins (KinaseProfiler platform)
Description: as §1, §2

Ret(h) = target: T21, Ret(h) (Homo sapiens, UniProt P07949)
T21 construct: purchased Eurofins (KinaseProfiler platform)
Description: as §1, §2

IKKα(h) = target: T22, IKKα(h) (Homo sapiens, UniProt O15111)
T22 construct: purchased Eurofins (KinaseProfiler platform)
Description: as §1, §2

MEK2(h) = target: T23, MEK2(h) (Homo sapiens, UniProt P36507)
T23 construct: purchased Eurofins (KinaseProfiler service)
Description: as §1, §2

TrkA(h) = target: T24, TrkA(h) (Homo sapiens, UniProt P04629)
T24 construct: purchased Eurofins (KinaseProfiler platform)
Description: as §1, §2

Ros(h) = target: T25, Ros(h) (Homo sapiens, UniProt P08922)
T25 construct: purchased Eurofins (KinaseProfiler platform)
Description: as §1, §2

MKK6(h) = target: T26, MKK6(h) (Homo sapiens, UniProt P52564)
T26 construct: purchased Eurofins (KinaseProfiler service)
Description: as §1, §2

T6 sequence (P41240 whole entry): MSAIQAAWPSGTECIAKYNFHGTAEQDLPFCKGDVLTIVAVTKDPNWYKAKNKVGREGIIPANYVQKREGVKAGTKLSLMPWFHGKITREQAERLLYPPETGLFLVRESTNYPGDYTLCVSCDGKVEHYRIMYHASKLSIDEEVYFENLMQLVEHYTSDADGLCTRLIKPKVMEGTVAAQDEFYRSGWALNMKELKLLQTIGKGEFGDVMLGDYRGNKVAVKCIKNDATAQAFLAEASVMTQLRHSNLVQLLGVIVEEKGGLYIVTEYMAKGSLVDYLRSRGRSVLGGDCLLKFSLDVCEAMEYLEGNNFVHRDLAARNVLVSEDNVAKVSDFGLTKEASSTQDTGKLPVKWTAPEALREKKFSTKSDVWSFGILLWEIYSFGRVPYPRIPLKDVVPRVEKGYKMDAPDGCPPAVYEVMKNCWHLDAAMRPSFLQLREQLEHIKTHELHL
T25 sequence (P08922 28-2347): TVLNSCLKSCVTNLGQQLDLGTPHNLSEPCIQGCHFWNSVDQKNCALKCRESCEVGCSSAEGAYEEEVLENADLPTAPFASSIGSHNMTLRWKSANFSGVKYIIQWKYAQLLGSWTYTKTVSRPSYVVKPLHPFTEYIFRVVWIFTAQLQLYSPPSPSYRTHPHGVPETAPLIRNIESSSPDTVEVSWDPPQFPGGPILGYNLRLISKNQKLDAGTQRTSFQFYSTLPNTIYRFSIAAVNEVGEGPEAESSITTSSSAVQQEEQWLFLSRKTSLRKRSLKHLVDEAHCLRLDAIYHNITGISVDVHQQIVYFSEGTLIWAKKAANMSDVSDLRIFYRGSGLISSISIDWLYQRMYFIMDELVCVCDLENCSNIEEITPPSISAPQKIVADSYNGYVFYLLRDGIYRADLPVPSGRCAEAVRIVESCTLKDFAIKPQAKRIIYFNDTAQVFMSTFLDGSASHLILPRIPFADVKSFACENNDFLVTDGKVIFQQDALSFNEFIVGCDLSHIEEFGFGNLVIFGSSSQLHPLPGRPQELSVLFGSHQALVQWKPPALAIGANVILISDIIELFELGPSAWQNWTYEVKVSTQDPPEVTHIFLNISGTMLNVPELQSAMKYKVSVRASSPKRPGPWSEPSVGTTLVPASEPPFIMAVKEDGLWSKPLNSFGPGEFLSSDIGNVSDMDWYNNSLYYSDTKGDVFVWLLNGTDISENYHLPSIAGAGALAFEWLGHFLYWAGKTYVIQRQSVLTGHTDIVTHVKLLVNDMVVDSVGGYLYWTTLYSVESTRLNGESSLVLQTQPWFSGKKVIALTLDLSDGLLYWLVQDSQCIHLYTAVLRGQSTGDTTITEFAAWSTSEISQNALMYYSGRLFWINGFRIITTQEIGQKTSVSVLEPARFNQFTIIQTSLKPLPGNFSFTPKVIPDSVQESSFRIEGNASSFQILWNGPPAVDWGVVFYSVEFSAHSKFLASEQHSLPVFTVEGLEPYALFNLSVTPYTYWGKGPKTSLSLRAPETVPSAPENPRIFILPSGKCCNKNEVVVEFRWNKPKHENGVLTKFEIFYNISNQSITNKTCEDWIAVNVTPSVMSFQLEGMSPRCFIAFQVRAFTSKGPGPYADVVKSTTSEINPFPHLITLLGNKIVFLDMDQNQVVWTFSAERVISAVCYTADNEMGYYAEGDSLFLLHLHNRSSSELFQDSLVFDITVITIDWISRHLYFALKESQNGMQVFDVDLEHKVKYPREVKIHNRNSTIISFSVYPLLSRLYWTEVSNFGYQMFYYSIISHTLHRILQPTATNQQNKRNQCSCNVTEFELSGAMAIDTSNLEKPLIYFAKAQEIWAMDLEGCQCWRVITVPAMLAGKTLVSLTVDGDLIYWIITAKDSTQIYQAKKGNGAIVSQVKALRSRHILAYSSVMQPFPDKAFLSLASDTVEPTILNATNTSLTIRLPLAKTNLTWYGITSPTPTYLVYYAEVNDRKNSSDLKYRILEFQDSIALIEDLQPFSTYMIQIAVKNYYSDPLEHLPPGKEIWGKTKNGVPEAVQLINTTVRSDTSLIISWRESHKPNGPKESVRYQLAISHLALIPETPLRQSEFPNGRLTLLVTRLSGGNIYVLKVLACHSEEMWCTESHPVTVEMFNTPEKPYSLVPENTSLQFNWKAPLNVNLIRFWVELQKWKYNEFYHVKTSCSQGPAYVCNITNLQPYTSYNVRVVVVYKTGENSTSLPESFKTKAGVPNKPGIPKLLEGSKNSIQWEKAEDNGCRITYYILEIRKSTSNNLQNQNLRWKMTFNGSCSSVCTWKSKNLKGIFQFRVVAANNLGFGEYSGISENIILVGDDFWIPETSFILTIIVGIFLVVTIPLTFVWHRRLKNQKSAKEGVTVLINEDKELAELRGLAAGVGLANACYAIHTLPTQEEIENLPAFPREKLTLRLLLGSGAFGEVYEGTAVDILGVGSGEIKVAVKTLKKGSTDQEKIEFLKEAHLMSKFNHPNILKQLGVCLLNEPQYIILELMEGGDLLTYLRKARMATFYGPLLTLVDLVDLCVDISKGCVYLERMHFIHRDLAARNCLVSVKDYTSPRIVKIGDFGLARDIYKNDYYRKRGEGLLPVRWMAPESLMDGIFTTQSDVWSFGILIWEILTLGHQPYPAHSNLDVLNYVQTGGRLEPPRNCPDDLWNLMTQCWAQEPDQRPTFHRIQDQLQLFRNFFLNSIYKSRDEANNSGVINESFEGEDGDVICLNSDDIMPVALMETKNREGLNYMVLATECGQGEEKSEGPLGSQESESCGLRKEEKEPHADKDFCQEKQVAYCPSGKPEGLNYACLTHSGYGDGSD
T12 sequence (O95819 whole entry): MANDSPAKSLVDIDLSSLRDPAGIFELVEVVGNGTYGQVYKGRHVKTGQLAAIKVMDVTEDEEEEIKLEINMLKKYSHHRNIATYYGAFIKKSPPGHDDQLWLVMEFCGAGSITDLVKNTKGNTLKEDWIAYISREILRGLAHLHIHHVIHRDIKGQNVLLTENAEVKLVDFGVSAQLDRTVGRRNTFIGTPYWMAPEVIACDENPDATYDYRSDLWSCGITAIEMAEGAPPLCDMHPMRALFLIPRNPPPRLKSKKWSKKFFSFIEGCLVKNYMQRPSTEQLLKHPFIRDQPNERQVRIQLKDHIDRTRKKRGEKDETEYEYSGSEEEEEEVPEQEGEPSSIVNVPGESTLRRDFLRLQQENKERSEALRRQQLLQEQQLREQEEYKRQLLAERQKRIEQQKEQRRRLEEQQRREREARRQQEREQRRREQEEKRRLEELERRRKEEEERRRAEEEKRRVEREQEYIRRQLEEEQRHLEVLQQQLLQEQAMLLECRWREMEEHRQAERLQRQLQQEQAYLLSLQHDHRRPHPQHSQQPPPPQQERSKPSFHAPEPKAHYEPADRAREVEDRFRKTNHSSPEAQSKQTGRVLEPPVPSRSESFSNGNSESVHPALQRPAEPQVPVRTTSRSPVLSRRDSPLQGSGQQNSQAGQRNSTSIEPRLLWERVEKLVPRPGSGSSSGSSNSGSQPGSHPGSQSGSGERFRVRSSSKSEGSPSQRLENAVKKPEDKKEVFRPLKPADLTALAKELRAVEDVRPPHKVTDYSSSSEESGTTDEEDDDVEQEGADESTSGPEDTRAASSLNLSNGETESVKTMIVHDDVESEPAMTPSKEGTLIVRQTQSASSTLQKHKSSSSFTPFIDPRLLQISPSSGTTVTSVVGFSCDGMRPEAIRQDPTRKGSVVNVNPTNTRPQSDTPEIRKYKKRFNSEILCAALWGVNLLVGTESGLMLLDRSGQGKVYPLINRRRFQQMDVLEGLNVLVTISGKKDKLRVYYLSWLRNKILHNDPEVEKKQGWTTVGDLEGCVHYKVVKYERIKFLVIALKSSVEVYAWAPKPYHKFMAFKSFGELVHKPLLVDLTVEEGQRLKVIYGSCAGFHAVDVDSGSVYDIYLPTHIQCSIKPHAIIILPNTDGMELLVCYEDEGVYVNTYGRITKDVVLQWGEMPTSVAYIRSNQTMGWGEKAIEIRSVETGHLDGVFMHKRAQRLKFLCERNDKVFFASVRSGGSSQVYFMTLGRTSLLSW
T17 sequence (P53778 whole entry): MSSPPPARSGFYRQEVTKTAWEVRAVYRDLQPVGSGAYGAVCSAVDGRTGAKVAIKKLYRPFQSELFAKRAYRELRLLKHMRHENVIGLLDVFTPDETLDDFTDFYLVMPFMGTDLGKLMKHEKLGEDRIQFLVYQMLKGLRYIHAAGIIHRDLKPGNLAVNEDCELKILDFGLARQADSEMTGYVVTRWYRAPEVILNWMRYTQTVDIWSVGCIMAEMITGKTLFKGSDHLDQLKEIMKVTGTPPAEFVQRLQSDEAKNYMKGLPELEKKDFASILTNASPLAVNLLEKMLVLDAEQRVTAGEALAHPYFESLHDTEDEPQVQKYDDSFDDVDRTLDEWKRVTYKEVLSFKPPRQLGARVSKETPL
T23 sequence (P36507 whole entry): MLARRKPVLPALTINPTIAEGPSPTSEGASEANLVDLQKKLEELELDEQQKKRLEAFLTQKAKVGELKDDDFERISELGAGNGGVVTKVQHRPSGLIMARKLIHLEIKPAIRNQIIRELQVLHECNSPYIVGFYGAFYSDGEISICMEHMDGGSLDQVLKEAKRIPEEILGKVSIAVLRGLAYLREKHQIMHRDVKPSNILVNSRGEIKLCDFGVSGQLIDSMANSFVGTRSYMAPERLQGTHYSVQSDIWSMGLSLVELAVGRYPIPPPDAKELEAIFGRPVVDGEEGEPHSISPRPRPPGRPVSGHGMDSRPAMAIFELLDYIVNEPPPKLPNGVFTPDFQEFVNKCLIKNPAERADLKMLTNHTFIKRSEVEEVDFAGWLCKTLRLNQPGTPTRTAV

SMILES: c1cn2c(n1)c(Nc1ccc(N3CCOCC3)cc1)nc1ccc(-c3cn[nH]c3)cc12 [Compound 1]
- IC50 (Flt1(h)): 104 nM
- IC50 (Fyn(h)): 373 nM
- IC50 (Src(T341M)(h)): 1010 nM
- IC50 (Yes(h)): 204 nM
- IC50 (JNK2α2(h)): > 10000 nM
- IC50 (CSK(h)): > 10000 nM
- IC50 (cSRC(h)): 367 nM
- IC50 (ErbB2(h)): > 10000 nM
- IC50 (c-kit(h)): 2840 nM
- IC50 (FAK(h)): 469 nM
- IC50 (PKA(h)): > 10000 nM
- IC50 (MAP4K4(h)): 63 nM
- IC50 (IR(h)): > 10000 nM
- IC50 (CK1ε(h)): 385 nM
- IC50 (MSK1(h)): > 10000 nM
- IC50 (JAK3(h)): 550 nM
- IC50 (SAPK3(h)): > 10000 nM
- IC50 (CDK2/cyclinA(h)): > 10000 nM
- IC50 (BTK(h)): 1040 nM
- IC50 (FGFR1(h)): 847 nM
- IC50 (Ret(h)): 756 nM
- IC50 (IKKα(h)): 946 nM
- IC50 (MEK2(h)): > 10000 nM
- IC50 (TrkA(h)): 112 nM
- IC50 (Ros(h)): > 10000 nM
- IC50 (MKK6(h)): > 10000 nM

— patent US12637469B2, “1H-pyrazole derivative and application thereof as dual target inhibitor of Syk and VEGFR2” (Ocumension Therapeutics (Suzhou) Co., Ltd., priority 2020, dated 2026)
